Values quoted from earlier work in US20100323044A1, “ABNORMAL PROTEIN REMOVING METHOD” (FANCL CORPORATION, priority 2004, published 2010).

Details: assumed, J Nutr 134 (2004); broken down by intestinal bacteria into soyasapogenol B, then absorbed

In the case of `C[C@@H]1O[C@@H](O[C@H]2[C@H](O[C@H]3[C@H](O[C@H]4CC[C@@]5(C)[C@@H](CC[C@]6(C)[C@@H]5CC=C5[C@@H]7CC(C)(C)C[C@@H](O)[C@]7(C)CC[C@]56C)[C@@]4(C)CO)O[C@H](C(=O)O)[C@@H](O)[C@@H]3O)O[C@H](CO)[C@H](O)[C@@H]2O)[C@H](O)[C@H](O)[C@H]1O` [soyasaponin I], the “absorption in the human intestines” value is listed as “not absorbed directly”.
